In series [1] the test system is HBV wild-type strain ayw1 in HepG2 2.2.15 cells. The experiment in a line: Primary anti-HBV assay: extracellular HBV DNA copy number by real-time qPCR (TaqMan). The series is classed as cell-based, Hepatitis B virus. On the procedure: (§1) The primary anti-HBV assay is performed as previously described (Korba, B F and Milman, G. A cell culture assay for compound which inhibit hepatitis B virus replication. Antiviral Res. 1991, 15, 217-228; and Korba, B F and Gerin, J L. Use of a standardized cell culture assay to assess activities of nucleoside analogs again hepatitis B virus replication. Antiviral Res. 1992, 19, 55-70) with modifications to use real-time qPCR (TaqMan) to measure extracellular HBV DNA copy number associated with virions released from HepG2 2.2.15 cells. The HepG2 2.2.15 cell line is a stable human hepatoblastoma cell line that contains two copies of the HBV wild-type strain ayw1 genome and constitutively produces high levels of HBV. Antiviral compounds blocking any late step of viral replication such as transcription, translation, pregenome encapsidation, reverse transcription, particle assembly and release can be identified and characterized using this cell line.
(§2) Briefly, HepG2 2.2.15 cells are plated in 96-well microtiter plates at 1.5×10^4 cells/well in Dulbecco's Modified Eagle's Medium supplemented with 2% FBS, 380 μg/mL G418, 2.0 mM L-Glutamine, 100 units/mL Penicillin, 100 μg/mL Streptomycin, and 0.1 mM non-essential amino acids. Only the interior wells are utilized to reduce “edge effects” observed during cell culture; the exterior wells are filled with complete medium to help minimize sample evaporation. After 16-24 hours the confluent monolayer of HepG2 2.2.15 cells is washed and the medium is replaced with complete medium containing various concentrations of a test compound in triplicate Lamivudine (3TC) is used as the positive control, while media alone is added to cells as a negative control (virus control, VC). Three days later the culture medium is replaced with fresh medium containing the appropriately diluted test compounds. Six days following the initial administration of the test compound, the cell culture supernatant is collected, treated with pronase and then used in a real-time quantitative TaqMan qPCR assay. The PCR-amplified HBV DNA is detected in real-time by monitoring increases in fluorescent signal that result from the exonucleolytic degradation of a quenched fluorescent probe molecule that hybridizes to the amplified HBV DNA. For each PCR amplification, a standard curve is simultaneously generated using dilutions of purified HBV DNA. Antiviral activity is calculated from the reduction in HBV DNA levels (EC50 & EC90 values determined). A tetrazolium dye (MTS; 3-(4,5-dimethylthiazol-2-yl)-5-(3-carboxy-methoxyphenyl)-2-(4-sulfophenyl)-2H-tetrazolium; CellTiter®96 Reagent, Promega) uptake assay is then employed to measure cell viability, which is used to calculate toxicity (CC50). The Selectivity Index (SI50) is calculated as CC50/IC50.
In general terms: Quantitative PCR measures a nucleic acid by following its amplification.

The nature of series [2]: MTS tetrazolium dye uptake cell viability assay (primary assay). Format: cell-based, human. The note with it: human, HepG2 2.2.15 cells. On the procedure: as §2
For orientation: Formazan colour is commonly taken as a measure of viable cells.

For series [3] the following is noted: read-out: CC50 (cellular cytotoxicity); cited from earlier work.
The test system of a further series is HIV-2. The note with it: cited from earlier work.
A further series concerns HIV-1. As to conditions: cited from earlier work.
Another series concerns HepG2 2.2.15 cells. The experiment in a line: MTS tetrazolium dye uptake cell viability assay (primary assay). The series is classed as cell-based, human. On the procedure:
as §2

Series [4] deals with HBV wild-type strain ayw1 in HepG2 2.2.15 cells. The experiment in a line: microbe, parasite or virus in culture. Format: cell-based. The note with it: Hepatitis B virus. On the procedure:
as §1
Briefly, HepG2 2.2.15 cells are plated in 96-well microtiter plates at 1.5×10^4 cells/well in Dulbecco's Modified Eagle's Medium supplemented with 2% FBS, 380 μg/mL G418, 2.0 mM L-Glutamine, 100 units/mL Penicillin, 100 μg/mL Streptomycin, and 0.1 mM non-essential amino acids. Only the interior wells are utilized to reduce “edge effects” observed during cell culture; the exterior wells are filled with complete medium to help minimize sample evaporation. After 16-24 hours the confluent monolayer of HepG2 2.2.15 cells is washed and the medium is replaced with complete medium containing various concentrations of a test compound in triplicate Lamivudine (3TC) is used as the positive control, while media alone is added to cells as a negative control (virus control, VC). Three days later the culture medium is replaced with fresh medium containing the appropriately diluted test compounds. Six days following the initial administration of the test compound, the cell culture supernatant is collected, treated with pronase and then used in a real-time quantitative TaqMan qPCR assay. The PCR-amplified HBV DNA is detected in real-time by monitoring increases in fluorescent signal that result from the exonucleolytic degradation of a quenched fluorescent probe molecule that hybridizes to the amplified HBV DNA. For each PCR amplification, a standard curve is simultaneously generated using dilutions of purified HBV DNA. Antiviral activity is calculated from the reduction in HBV DNA levels (EC50 & EC90 values determined). A tetrazolium dye (MTS; 3-(4,5-dimethylthiazol-2-yl)-5-(3-carboxy-methoxyphenyl)-2-(4-sulfophenyl)-2H-tetrazolium; CellTiter®96 Reagent, Promega) uptake assay is then employed to measure cell viability, which is used to calculate toxicity (CC50). The Selectivity Index (SI50) is calculated as CC50/IC50. […]

Another series in a line: in vitro. The note with it: human; HepG2 2.2.15 cells, secondary assay. Format: cell-based. On the procedure: Briefly, HepG2 2.2.15 cells are plated in 96-well microtiter plates at 1.5×10^4 cells/well in Dulbecco's Modified Eagle's Medium supplemented with 2% FBS, 380 μg/mL G418, 2.0 mM L-Glutamine, 100 units/mL Penicillin, 100 μg/mL Streptomycin, and 0.1 mM non-essential amino acids. Only the interior wells are utilized to reduce “edge effects” observed during cell culture; the exterior wells are filled with complete medium to help minimize sample evaporation. After 16-24 hours the confluent monolayer of HepG2 2.2.15 cells is washed and the medium is replaced with complete medium containing various concentrations of a test compound in triplicate Lamivudine (3TC) is used as the positive control, while media alone is added to cells as a negative control (virus control, VC). […] Six days following the initial administration of the test compound, the cell culture supernatant is collected, treated with pronase and then used in a real-time quantitative TaqMan qPCR assay. The PCR-amplified HBV DNA is detected in real-time by monitoring increases in fluorescent signal that result from the exonucleolytic degradation of a quenched fluorescent probe molecule that hybridizes to the amplified HBV DNA. […] Antiviral activity is calculated from the reduction in HBV DNA levels (EC50 & EC90 values determined). […] The Selectivity Index (SI50) is calculated as CC50/IC50. […]

Where [5] appears, read: Hepatitis B virus, HepG2 2.2.15, 144 h.
Where [6] appears, read: Hepatitis B virus, 144 h, reduction in extracellular HBV DNA, HepG2 2.2.15 cells, six days, read-out: EC50.
Setting [7] is: Hepatitis B virus, 144 h, reduction in extracellular HBV DNA, HepG2 2.2.15 cells, six days, read-out: EC90.

Counter-ions that a name gives are not always drawn.

One may read the EC50 as the midpoint of the concentration-response curve. What is called EC90 is the concentration needed for an effect of 90%. In general, CC50 refers to the concentration at which the toxic effect on the cells reaches its halfway point. For the compound `Cc1cn([C@H]2C[C@@H](OCP(=O)(N[C@@H](CC(=O)OCCC(C)C)C(=O)OCCC(C)C)Oc3ccccc3)CO2)c(=O)[nH]c1=O` (some centres unmarked) [compound 21], in series [1] (setting [5]), the EC50 turned out to be 0.25 µM and the 90% effect concentration (EC90) is > 10 µM. This compound also gave a CC50 at 6 days in series [2] of 59.6 µM.

A word on the IC50: it is the concentration that inhibits the measured activity by half. Take `Cc1cn([C@H]2C[C@@H](OCP(=O)(O)O)CO2)c(=O)[nH]c1=O` [PMDTT, 1′α-(Thymin-1-yl)-2′-deoxy-3′-O-phosphonomethyl-L-threose triethylammonium salt, reference compound]: the 50% effective concentration (EC50) in series [1] (setting [6]) is 40.2 µM. Also, in series [1] (setting [7]), the EC90 is > 100 µM. For the same compound, the CC50 at 6 days in series [2] is > 100 µM. For the same compound, in series [3], the CC50 was > 343 µM. The IC50 in the series on HIV-2 (read-out: IC50 value against HIV-2) and in the series with HIV-1 (read-out: IC50 value against HIV-1) was 6.59 µM each time.

With `CC(C)OC(=O)[C@H](C)NP(=O)(CO[C@H]1CO[C@@H](n2cnc3c(N)ncnc32)C1)Oc1ccccc1` (some centres unmarked) [compound 17], in series [1] (setting [5]), a half-maximal response (EC50) required 0.03 µM and the EC90 was > 10 µM. For the same compound, the CC50 at 6 days in series [2] is > 10 µM.

For the compound `Cc1cn([C@H]2C[C@@H](OCP(=O)(N[C@@H](C)C(=O)OC(C)C)Oc3ccccc3)CO2)c(=O)[nH]c1=O` (some centres unmarked) [compound 20], in series [1] (setting [5]), the 50% effective concentration (EC50) turned out to be 0.26 µM and the EC90 was > 10 µM. In series [2], the CC50 at 6 days is > 100 µM.

Regarding `CCCOC(=O)[C@H](Cc1ccccc1)NP(=O)(CO[C@H]1CO[C@@H](n2cnc3c(=O)[nH]c(N)nc32)C1)N[C@@H](Cc1ccccc1)C(=O)OCCC` [compound 39], the half-maximal effective concentration (EC50) in series [1] (setting [6]) is > 100 µM. Moreover, in series [1] (setting [7]), the EC90 is > 100 µM. In addition, the 50% cytotoxic concentration (CC50) at 6 days in series [2] was > 100 µM.

Regarding `CC(C)OC(=O)[C@H](C)NP(=O)(CO[C@H]1CO[C@@H](n2cnc3c(=O)[nH]c(N)nc32)C1)Oc1ccccc1` (some centres unmarked) [compound 40], in series [1] (setting [5]), the concentration giving a half-maximal response (EC50) is > 100 µM and the 90% effect concentration (EC90) is > 100 µM. In series [2], the CC50 at 6 days is > 100 µM.

On to `CC(C)OC(=O)[C@H](C)NP(=O)(COC1COC(n2cnc3c(=O)[nH]c(N)nc32)C1)Oc1ccccc1` (stereo partly drawn) [compound 41, 1′α-(Guanin-9-yl)-2′-deoxy-3′-O—{[N-(isopropyl-L-alaninate)](phenoxy)-methylphosphonoamidate}-L-threose], for which the half-maximal effective concentration (EC50) in series [1] (reduction in extracellular HBV DNA, HepG2 2.2.15 cells, six days, read-out: EC50) is > 100 µM. For the same compound, in series [1] (reduction in extracellular HBV DNA, HepG2 2.2.15 cells, six days, read-out: EC90), the concentration for an effect of 90% (EC90) is > 100 µM. The half-maximal cytotoxic concentration (CC50) in the series with HepG2 2.2.15 cells is > 100 µM.

In the case of `Nc1ncnc2c1ncn2[C@H]1C[C@@H](OCP(=O)(O)O)CO1` [PMDTA, 1′α-(Adenin-9-yl)-2′-deoxy-3′-O-phosphonomethyl-L-threose triethylammonium salt, reference compound], the EC50 in series [1] (setting [6]) is 0.5 µM; in the series on HIV-2 (read-out: EC50 value against HIV-2), 2.53 µM; in the series on HIV-1 (read-out: EC50 value against HIV-1) it was 2.53 µM. For the same compound, the EC90 in series [1] (setting [7]) was > 100 µM. Further, the half-maximal cytotoxic concentration (CC50) at 6 days in series [2] is > 100 µM. Further, the CC50 in series [3] is > 316 µM.

Turning to `CC(C)OC(=O)[C@H](C)NP(=O)(CO[C@H]1CO[C@@H](n2ccc(N)nc2=O)C1)Oc1ccccc1` (stereo partly drawn) [compound 32, 1′α-(Cytosin-1-yl)-2′-deoxy-3′-O—{[N-(isopropyl-L-alaninate)](phenoxy)-methylphosphonoamidate}-L-threose], in series [1] (setting [5]), the EC50 was determined as 47.9 µM and the EC90 is > 100 µM. The CC50 at 6 days in series [2] was > 100 µM.

With `CC(C)CCOC(=O)C[C@H](NP(=O)(CO[C@H]1CO[C@@H](n2cnc3c(N)ncnc32)C1)Oc1ccccc1)C(=O)OCCC(C)C` (some centres unmarked) [compound 18], the half-maximal effective concentration (EC50) is 0.01 µM in series [1] (setting [5]) and < 0.01 µM in series [4] (HepG2 2.2.15). The results for the concentration for an effect of 90% (EC90) in series [1] (setting [5]) and in series [4] (HepG2 2.2.15) were 0.98 µM and 0.36 µM, respectively. Further, the cytotoxic concentration (CC50) at 6 days in series [2] was determined as 55.5 µM; in “in vitro”, 35.2 µM.

As for `Nc1ccn([C@@H]2CS[C@H](CO)O2)c(=O)n1` [3TC (Lamivudine), Lamivudine, reference compound], the concentration giving a half-maximal response (EC50) in series [1] (setting [6]) is 0.03 µM; in series [4] (reduction in intracellular HBV DNA, HepG2 2.2.15 cells, read-out: EC50), < 0.01 µM. Also, the EC90 in series [1] (setting [7]) was > 2 µM; in series [4] (reduction in intracellular HBV DNA, HepG2 2.2.15 cells, read-out: EC90), > 2 µM. The 50% cytotoxic concentration (CC50) at 6 days in series [2] was > 2 µM.

The values above are taken from patent US10087209B2, “Antiviral compounds, a process for their preparation, and their use for treating viral infections” (KU LEUVEN RESEARCH & DEVELOPMENT, priority 2015, dated 2018).
